Tests used:
α-amylase = target: T1, α-amylase (Sus scrofa, UniProt P00690); assay: Alpha-amylase inhibition assay (DNS method); format: biochemical; conditions: in vitro, triplicate; read-out: IC50 = α-Amylase µM ± SEM
T1 sequence (P00690 16-511): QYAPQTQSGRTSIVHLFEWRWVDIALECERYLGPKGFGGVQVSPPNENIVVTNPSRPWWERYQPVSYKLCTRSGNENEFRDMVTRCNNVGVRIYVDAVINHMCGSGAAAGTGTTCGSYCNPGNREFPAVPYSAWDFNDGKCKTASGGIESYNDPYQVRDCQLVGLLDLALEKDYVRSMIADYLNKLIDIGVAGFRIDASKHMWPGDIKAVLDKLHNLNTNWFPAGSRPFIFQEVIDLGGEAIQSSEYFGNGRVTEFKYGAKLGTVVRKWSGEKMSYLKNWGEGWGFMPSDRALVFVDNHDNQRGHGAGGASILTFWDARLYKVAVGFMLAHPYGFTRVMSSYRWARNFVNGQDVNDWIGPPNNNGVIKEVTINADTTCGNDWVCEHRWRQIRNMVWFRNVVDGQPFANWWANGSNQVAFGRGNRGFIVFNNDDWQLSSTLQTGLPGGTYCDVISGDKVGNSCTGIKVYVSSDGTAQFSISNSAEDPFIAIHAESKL
Experimental: The in vitro alpha-amylase study was conducted and the enzyme was sourced from Merck (Sigma-Aldrich, Hamburg, Germany). The inhibitory activity of the synthesized compounds against α-amylase was evaluated using a standard protocol with slight modifications [44]. In brief, 250 µL of the test compound (prepared at varying concentrations, 50–250 µg/mL) was mixed with 250 µL of starch solution [1% (w/v)] and 250 µL of α-amylase solution (1 U/mL). The reaction mixture was incubated at 20 °C for 3 min, after which enzymatic activity was terminated by the addition of 500 µL of dinitrosalicylic acid (DNS) color reagent. The mixture was then heated in a boiling water bath at 85 °C for 15 min, cooled to room temperature for 5 min, and diluted with 4.5 mL of distilled water to a final volume of 6.0 mL. Absorbance was measured at 540 nm using a UV-visible spectrophotometer. […] The percentage inhibition was calculated and all experiments were conducted in triplicate.

α-glucosidase = α-glucosidase (Saccharomyces cerevisiae, UniProt P53341); format: biochemical; conditions: in vitro, triplicate; read-out: IC50 = α-Glucosidase µM ± SEM
Sequence of α-glucosidase (P53341 whole entry): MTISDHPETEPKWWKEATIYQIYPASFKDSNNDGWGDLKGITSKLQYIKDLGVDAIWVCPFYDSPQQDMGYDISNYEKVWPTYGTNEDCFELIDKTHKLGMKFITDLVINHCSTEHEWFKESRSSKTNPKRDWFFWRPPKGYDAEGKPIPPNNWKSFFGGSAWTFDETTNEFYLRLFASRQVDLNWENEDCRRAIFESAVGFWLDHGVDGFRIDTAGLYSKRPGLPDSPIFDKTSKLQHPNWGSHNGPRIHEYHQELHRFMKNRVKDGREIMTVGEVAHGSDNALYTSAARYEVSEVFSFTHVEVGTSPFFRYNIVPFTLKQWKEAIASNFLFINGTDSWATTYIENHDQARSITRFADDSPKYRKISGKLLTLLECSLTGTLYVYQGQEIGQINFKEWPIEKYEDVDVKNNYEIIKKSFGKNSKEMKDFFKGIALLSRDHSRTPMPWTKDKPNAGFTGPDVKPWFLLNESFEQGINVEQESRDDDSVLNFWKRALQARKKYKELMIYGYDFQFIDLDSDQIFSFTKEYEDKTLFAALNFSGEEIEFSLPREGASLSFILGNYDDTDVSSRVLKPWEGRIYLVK
Experimental: The in vitro alpha-glucosidase study was conducted and the enzyme was sourced from Merck (Sigma-Aldrich). The α-glucosidase inhibitory activity was determined following a standard microplate-based method [45]. In each well of a 96-well plate, 35 µL of phosphate buffer (pH 6.8), 31 µL of the test compound solution (50–250 µg/mL), and 18 µL of p-nitrophenyl-α-D-glucopyranoside (pNPG, substrate) were added and pre-incubated at 37 °C for 5 min. The reaction was initiated by the addition of 16 µL of α-glucosidase (0.15 U/mL in phosphate buffer), resulting in a total assay volume of 100 µL. After incubation, the reaction was terminated by adding 100 µL of sodium carbonate (200 mM), and absorbance was recorded at 405 nm using a microplate reader. […] The percentage inhibition was calculated according to the following equation: % inhibition=(Abs control − Abs sample)/Abs control×100
All assays were performed in triplicate to ensure reproducibility.

Work on “5-(2,4-Dihydroxy-5-methylphenyl)-6H-imidazo{1,2-b]{1,2,4]triazole-2-carboxylic acid [Compound 7]” yielded an IC50 (α-amylase) of 7.1 ± 0.3 µM and an IC50 (α-glucosidase) of 7.7 ± 0.2 µM.

— paper PMC12472753, “Fused Imidazotriazole-Based Therapeutics: A Multidisciplinary Study Against Diabetes-Linked Enzymes Alpha-Amylase and Alpha-Glucosidase Using In Vitro and In Silico Methods” (Pharmaceuticals, 2025)
